From US20050180968A1, “Use of relaxin for stimulating the development of activated human T cells into TH1-like effectors” (priority 2000, published 2005)

Key:
[1] = tested on: established CD4+ T cell clones (Th0-like); experiment: Cytokine production (ELISA) by established CD4+ T cell clones stimulated with insolubilized anti-CD3 mAb; format: cell-based, human; settings: for levels of IFN-?: 12 CD4+ clones, insolubilized anti-CD3 mAb, p<0.03 vs absence of RLX (3.6±0.98 ng/ml)
Protocol: To generate T cell clones, PBMC from normal subjects were seeded under limiting dilution conditions (0.3 cell/well) in six round-bottom microwell plates containing […] (6000 rad) allogeneic PBMC (as feeder cells) and PHA (1% vol/vol) in a final volume of 0.2 ml complete medium supplemented with 20 U/ml IL-2 and 10% FCS. Growing microcultures where then supplemented, at weekly intervals, with 20 U/ml IL-2 and 10^5 irradiated feeder cells. The phenotype distribution of T cell clones was assessed by flow cytometer-analysis.
(§1) To quantitate cytokine production in supernatants of TT-specific shortterm T cell lines and established T cell clones, […] were cultured in the presence of 20 ng/ml PMA plus 100 ng/ml anti-CD3 mAb. After 36 h culture, cell-free supernatants were collected, filtered, and stored in aliquots at −70° C. until used. Determination of IFN-? was performed by a commercial ELISA (Biosource International, Camarill, Calif.). […] Values of the cytokine content 5 SD over those of control supernatants obtained by stimulation of irradiated feeder cells alone were regarded as positive.
The two curves shown in FIG. 2 relate to two CD4^+ T cell clones stimulated with immobilised anti-CD3 antibody in the presence or in the absence of different concentrations of RLX for 36 h. […] Total RNA was extracted as described herein after. 1?g of RNA was reversed transcribed and cDNA were amplified and then subjected to PCR amplification with primers for IFN-? and IL4 as discussed more in detail below.
To provide unequivocal evidence of the direct effect of RLX on T cells, the activity of RLX on the IFN-? mRNA expression and IFN-? production by established T cell clones was examined. To this end, 12 CD4^+ T cells clones showing a Th0-like profile (production of both IFN-? and IL-4) were cultured in the absence of any other cell type and stimulated with insolubilized anti-CD3 mAb in the presence or absence of RLX. […] The levels of IL-4 produced by the same CD4+T cell clones were not altered by the presence of RLX.

[2] = tested on: established CD4+ T cell clones; experiment: RT-PCR of IFN-? and IL-4 mRNA in established CD4+ T cell clones; format: cell-based, human; settings: two clones, 10^−8 M RLX vs absence
Protocol: To induce cytokine mRNA expression in established T cell clones for RNA extraction 2×10^5 T blasts from each clone were cultured with insolubilized anti-CD3 (1?g/ml). After 12 h, pellets were washed four times with PBS at pH 7.2 and kept frozen until used. Total RNA was extracted using Ultraspec RNA Isolation kit (Biotex Laboratories, Inc. Houston, Tex., USA). […] Following extraction, 1 ?g of RNA was reverse transcribed by M-MLV reverse transcriptase (Gibco-BRL, Gaithersburg, Md., USA). All cDNA were amplified with primers for ?-actin to test the quality of cDNA and then subjected to PCR amplification with primers for IFN-? and IL-4. In each PCR reaction a positive control and a negative control (without cDNA as template to exclude contamination) were included. PCR analysis was carried out in a DNA thermal cycler (Idaho Technology, Idaho Falls, ID, USA). […] The size of the amplified products was evaluated by comparison with molecular weight markers run in parallel lanes.
The intensity of the bands for ?-actin obtained by RT-PCR was measured in all the samples to confirm that the same quantities of total RNA were reverse transcribed. In addition, the intensity of the bands for IFN-? obtained by PCR amplification (MIMIC and samples) and by Southern blot was also measured. […]

sensitized guinea pigs = settings: RLX treatment; cited from earlier work
[3] = tested on: adherent cell-enriched fractions of PBMC (monocytes/APC); experiment: IL-12 and IFN-? release by adherent cell-enriched fractions of PBMC stimulated with TT; format: cell-based, human; settings: stimulated 5 days with TT, absence vs presence of RLX
[4] = tested on: TT-specific short-term T cell lines from PBMC; experiment: Cytokine production by TT-specific short-term T cell lines expanded with or without RLX; format: cell-based, human
Protocol: TT-specific short-term T cell lines were generated from PBMC of TT-vaccinated normal donors according to a technique described in M. P. Piccinni et al <<Progesterone favors the development of human T helper cells producing Th2-type cytokines and promotes both IL-4 production and membrane CD30 expression in established TH1 cell clones>>, in J. Immmunol., 1995, 155: 128-133.
Briefly, 10^5 PBMC in 2 ml RPMI 1640 medium supplemented with 2 mM L-glutamine, 2×10^−5M 2-ME and 5% human serum (complete medium) were stimulated in 24-well flat-bottom plates for 5 days with the antigen (0.2?g/ml TT) in the absence or in the presence of RLX at concentrations of 10^−10, 10^−9, 10^−8, 10^−7 and 10^−6 M. Human IL-2 (20 U/ml) was then added and cultures continued for another 9 days. Viable T blasts were resuspended in complete medium and tested for their antigen specificity. To this end, 2×10^4 T blasts were seeded in microplates and cocultured for 48 h with irradiated (6000 rad) autologous PBMC (5×10^4) in the presence of medium alone or 0.1 ? g/ml TT, respectively. After a 16-h pulse with 0.5 ?Ci [^3H]thimidine, cultures where harvested and radioactivity measured by liquid scintillation. The phenotype distribution of TT-specific T cells was assessed by flow cytometer analysis.
as §1
On the other hand, no effect of RLX dilution can be observed on the production of IL-4.

CD4+ T cell clone = experiment: Competitive PCR for IFN-? mRNA in a CD4+ T cell clone; format: cell-based, human
Protocol: Competitive PCRfor IFN-?was performed using a competitorcontrol fragment (PCR MIMIC; Clontech Laboratories Inc. Palo Alto, Calif., USA) according to the manufacturer's instructions. PCR MIMIC was used together with sample cDNA in the reaction mixture; sample and control cDNA were amplified with the same primers, so they competed for the same primers in the same reaction, but were distinguished on gel electrophoresis by differences in length. By knowing the amount of PCR MIMIC added to the reaction, the amount of target cDNA and therefore the initial mRNA levels could be determined. Each sample (and competitor fragment) was subjected to 25 cycles of amplification as described above.
The intensity of the bands for ?-actin obtained by RT-PCR was measured in all the samples to confirm that the same quantities of total RNA were reverse transcribed. In addition, the intensity of the bands for IFN-? obtained by PCR amplification (MIMIC and samples) and by Southern blot was also measured. A CCD video camera C3077/01 (Hamamatsu Photonics, Tokyo, Japan) interfaced with an Apple Macintosh personal computer was used. Acquisition of images was obtained with Imagequest IQBase software (Hamamatsu Photonics). Image processing and analysis was performed with the free-share software IMAGE (National Institutes of Health, Research Services, Branch NIMH, version 1.28).

PSS patients = settings: cited from earlier work
[5] = FIG. 1, mean values, cultures with antigen plus 200 U/ml IL-12 as printed
[6] = expanded in presence vs absence of RLX

## relaxin [RLX]
[1]; 10^−7 M RLX
  levels of IFN-?: 5.87±1.63 ng/m
[1]; 10^−8 M RLX
  levels of IFN-?: 8.20 ± 2.27 ng/mL
[1]; same 12 CD4+ T cell clones, presence vs absence of RLX
  levels of IL-4: not altered
[2]
  IFN-? mRNA expression (RT-PCR): higher levels
  IL-4 mRNA levels (RT-PCR): the same
Sensitized guinea pigs
  allergic asthma-like reaction: reduced
  bronchial hyperresponsiveness: reduced
[3]
  concentration of IFN-? in supernatants: no significant differences
  concentration of IL-12 in supernatants: no significant differences
[4]; [5]
  production of IFN-? in TT-specific T cell lines as a function of RLX concentration (FIG. 1): increases with the concentration of RLX
  production of IL-4 in TT-specific T cell lines as a function of RLX concentration (FIG. 1): no effect
[4]; expanded in presence of RLX at 10^−9, 10-8 and 10^−7 M vs absence of RLX
  production of IFN-? in TT-specific T cells: significantly higher
[4]; [6]
  production of IL-4 in TT-specific T cells: no significant differences
  production of IL-5 in TT-specific T cells: no significant differences
  production of IL-6 in TT-specific T cells: no significant differences
CD4+ T cell clone; T cell clone no. 2, 10^−8 M RLX vs absence
  increase of IFN-? mRNA (competitive PCR, image analysis): approximately tenfold increase
CD4+ T cell clone; T cell clone no. 2, presence of 10^−8 M RLX, absence of RLX 4.1×10^−3
  IFN-? mRNA amount (competitive PCR): 5×10^−2 attomol/? I
PSS patients; PSS patients, control phase trial
  total skin score: improvement
PSS patients; RLX treatment compared with administration of IFN-?
  tolerability: better tolerated
